In US20080318931A1, “Treatment of Disorders and Diseases of the Colon” (priority 2004, published 2008):
“Also recorded” adds a separate entry of the source.

Key:
[1] = test system: ConA-induced mouse splenocytes; experiment: Con-A-induced mouse splenocyte proliferation/viability, alamar blue; format: cell-based; details: 48 hr
Procedure: (§1) Mouse splenocytes were isolated from C57b1 healthy female mice. Cells (10,000/well) were tested under basal and ConA stimulation. Cells were treated with vehicle, dexamethasone or antidepressants (2.5-10 μM). Viability was assessed 48 hr later using alamar blue staining. (Reagents were manufactured by Wildflower, Santa Fe, N. Mex., USA.) Alamar blue assay was performed as in Nociari et al (1998).
(§2) Effect of paroxetine, (SSRI) and clomipramine (TCA) as compared to dexamethasone on Con-A-induced splenocyte proliferation (alamar blue method), and splenocyte-induced secretion of TH1 cytokines TNF-α, IL2 and INFγ, 1×10^6 cells/well, was measured 48 hours after exposure to drugs (2.5-10 μM).
In particular, mouse splenocytes were isolated from C57BL healthy female mice. Cells (10,000/well) were then exposed to Con-A (5 μM) and treated with either the vehicle, with dexamethasone or with a drug (2.5-10 μM).
Cell viability was assessed 48 hr later using Alamar blue staining. The results are presented in FIG. 4, where each point is the graph represents the mean of 4 determinations. […]. The IC50 determined for the antidepressant drugs was in the range of 2.5-5.5 μM.
Cells were treated with vehicle, or the antidepressants (2.5-20 μM). Viability was assessed 48 hours later using alamar blue staining. (Each point is the mean+/−SEM of 4 determinations).

[2] = test system: mouse splenocytes (basal); experiment: Basal mouse splenocyte viability, alamar blue; format: cell-based; details: 2.5-10 μM, 48 hr
Procedure: as §1

[3] = test system: TH1 cytokines TNF-α, IL2 and INFγ; experiment: TH1 cytokine secretion (TNF-α, IL2, INFγ) from Con-A-induced splenocytes, ELISA; format: cell-based, mouse; details: 2.5-10 μM, 48 hours, 1×10^6 cells/well
Procedure: as §2
Cytokines were determined in the supernatant of the splenocyte specimens using an ELISA kit and protocol (Reagents by Cytolab). […] The pattern observed resembles that of dexamethasone.

[4] = test system: splenocytes derived from treated mice; experiment: ConA/basal proliferation ratio of splenocytes from mice treated in vivo for 7 days; parameters: species or system mouse; details: paroxetine 7.5, clomipramine 15 mg/kg x3/week i.p., Con A 5 μM in vitro
Procedure: Paroxetine or clomipramine were administered at 7.5 and 15 mg/kg x3/week i.p, respectively. Splenocytes were derived from treated animals.
Each group represents the mean of a pool of 5 animals.

human lymphocytes (PBMC) = experiment: PHA-induced human lymphocyte proliferation, alamar blue; format: cell-based; details: PHA 2.5 μg/ml, 48 hours
Procedure: Human blood mononuclear cells (PBMC) were isolated from whole blood of 3 healthy volunteers using Ficoll-Paque gradient (Amersham Sweden). Lymphocyte proliferation was induced by exposure of 1×10^6 cells/well to phytohemagglutinin (PHA) (2.5 μg/ml). Cells were exposed to PHA and treated with vehicle or with paroxetine (2.5-10.0 μM). Cell viability was assessed 48 hours post exposure to paroxetine (2.5-10.0 μM) using Alamar blue reagent (Wildflower, Santa Fe, N. Mex., USA) according to Nociari et al (1998).

human PBMC = experiment: Viability of LPS-exposed human PBMC, alamar blue; format: cell-based; details: LPS 2 ug/well, 2.5-30 μM, 48 hours, both subjects
Procedure: Human PBMC were isolated from whole blood of 2 healthy volunteers (A and B subjects). Cells (2×10^6/ml) were exposed to LPS (2 ug/well) and treated with either the vehicle, or with paroxetine, sertraline, clomipramine and trifluoperazine (2.5-30 μM).

Cyclooxygenase-2 (Cox-2) = experiment: Cox-2 expression in ConA stimulated mouse splenocytes, Western blot; format: cell-based; details: 5 μM, normalized to actin
Procedure: Determination was performed using Western blot analysis and quantitative dencitometry of blot.
For each sample 2×10^7 cells were used. Cells were lysed, and equal amounts of protein was fractionated on polyacrylamide gel and then transferred to PVDF membrane. The amount of the protein was detected by immuno-blotting with […] anti-Cox-2 anti body (Murine anti COX2 Polyclonal Cat. 160126, Ann Arbor, Mich., USA. 2nd antibody conjugated to horseradish peroxidase was used and visualized with chemiluminescent Kit (Pierce, Rockford, Ill., USA) on film. Quantification of blot was performed using a densitometry apparatus (VersaDoc™ imaging system, BioRad, USA) and levels were normalized to actin.

Cox-2 = Cox-2 expression in human PHA activated lymphocytes, Western blot; format: cell-based; details: 5 μM, PHA 15 μM
Procedure: (§3) Total protein lysates from human lymphocyte culture were prepared by agitation with lysis buffer (20 mM Tris pH 7.5, 150 mM NaCl, 1 mM EDTA, 1% Nonidet P-40, 0.5% sodium deoxycholate, and 2 mM Na2VO4) for 1 h at 4° C. The proteins were cleared by centrifugation at 14,000×g for 20 min at 4° C. Protein concentration was determined using BCA kit (Pierce, Ill., USA). For Western blot analysis, 30 μg-protein from each sample were loaded in 7.5% SDS-PAGE. Electroblotted proteins were detected using specific anti COX-2 polyclonal antibody (Cayman chemical company, Michigan, USA) or an ti-Stat3 monoclonal antibody (Transduction Laboratories Lexington UK). Bound antibodies were visualized using chemiluminescence reaction.

Stat3 = Stat3 expression in human PHA activated lymphocytes, Western blot; format: cell-based; details: 5 μM, PHA 15 μM
Procedure: as §3

[5] = test system: Human Colon carcinoma (HT29) cell-line; experiment: Viability of human colon carcinoma HT29 cells, alamar blue and neutral red; format: cell-based; details: 10-30 μM, FIG. 14
Procedure: Human Colon carcinoma (HT29) cell-line (ATCC USA) was maintained in RPMI medium supplemented with 10% fetal calf serum and penicillin (100 u/ml), streptomycin (100 mcg/ml), nystatin (12.5 u/ml), L-glutamine (2 mM). Confluent cultures were washed with phosphate-buffered saline (PBS), detached with trypsine (0.25%), centrifuged, and subcultured in 96-well microtiter test plates. Cells were exposed to vehicle or to psychotropic drugs. Cell viability was measured 24 hours later using the alamar blue and neutral red methods. Results were expressed as % of controls (vehicle treated cells). Each sample is the Mean+/−[…] of 4 determinations.

bcl-2 = bcl-2 expression in HT29 cells, western blot; format: cell-based, human; details: 10 and 20 μM, 24 hr
Procedure: (§4) The effect of paroxetine and sertraline on the expression of bcl-2 and C-jun was evaluated in human colon HT29 cell-line 24 hr after drug administration, using western blot analysis for C-jun and bcl-2 and specific antibodies.

C-jun = C-jun expression in HT29 cells, western blot; format: cell-based, human; details: 10 and 20 μM, 24 hr
Procedure: as §4

[6] = test system: Con-A activated splenocytes; details: 5 μM
Procedure: (§5) LPS (manufactured by Sigma St. Louis Mo., USA, cat no L2880) was administered at 100 μg/mouse×2, on day 7 and day 14).

[7] = test system: Con-A activated splenocytes; experiment: cells; details: Mus musculus, Splenocyte, read-out: inhibition of viability, splenocytes from naïve animals
Procedure: as §5

Fc1ccc([C@@H]2CCNC[C@H]2COc2ccc3c(c2)OCO3)cc1 [paroxetine]
ConA (mitogen)-induced splenocyte proliferation ([1]; 2.5-10 μM, alamar blue): dose dependent decrease; also recorded: dose-dependent decrease
cell viability compared to dexamethasone ([1]; Con-A 5 μM, drug 2.5-10 μM): decreased cell viability to the same extent as compared to dexamethasone
basal splenocyte proliferation [2]: dose dependent decrease
lymphocyte-induced pro-inflammatory cytokine secretion [3]: decrease
capacity to respond to Con-A (ratio ConA/basal) vs vehicle treated mice [4]: not
IC50 (human lymphocytes (PBMC)): 5 to 10 µM
order of potency, decrease in cell viability (human PBMC): sertraline>paroxetine>trifluoperazine>/=clomipramine
reduction of Cox-2 expression (Cyclooxygenase-2 (Cox-2)): 22.2%
PHA-induced increase in Cox-2 expression (Cox-2): antagonized
PHA-induced increase in Stat3 expression (Stat3): antagonized
inhibition of cell viability [5]: 64%
expression of bcl-2 (bcl-2): inhibition
expression of C-jun (C-jun): stimulation
response of splenocytes from LPS mice treated in vivo with sertraline ([6]; LPS mice + sertraline 5 mg/kg×3/week two weeks): more responsive
response of splenocytes from LPS mice ([6]; LPS-treated mice): in a manner similar to the naive animals
cytotoxicity at 5 µM [7]: 10%
